Data reported in patent US11884686B2, “Chelate compounds” (priority 2016, dated 2024).

Tests used:
[1] = In vitro proton relaxivity in human serum; type: physicochemical; conditions: 60 MHz, 40° C.
Experimental: Both the longitudinal and transverse relaxation times were measured in human serum (BioreclamationIVT, Cat #HMSRM-M) to reflect the efficiency of the Mn(II) based chelates in an environment close to physiological. The relaxivity assessment was carried out at a concentration ranging from 5 to 0 mM Mn(II), at 40° C. using a Minispec Mq benchtop NMR relaxometer (Bruker Instruments, Rheinstetten, Germany) operating at 60 MHz (1.4 T) with an inversion recovery pulse sequence. The longitudinal and transverse relaxivities of the complexes (e.g., r1 and r2 respectively) were calculated by plotting the reciprocal of their relaxation time versus the manganese concentration as determined via ICP-MS (Spectro Arcos FHS12, S/N 10003910 or S/N 12006120) for each Mn(II) based chelates. The dependence of T1 by B0 (i.e., magnetic field) applied was assessed via the acquisition of ^1H Nuclear Magnetic Relaxation Dispersion (NMRD) profiles. A dedicated Stelar SMARTracer Fast Field Cycling relaxometer (0.01-10 MHz) and a Bruker WP80 NMR electromagnet adapted to variable field measurements (20-80 MHz) and controlled by a SMARTracer PC-NMR console was used to record the ^1H NMRD profiles over an extended range of Larmor Frequencies (from 0.01 to 80 MHz). The temperature was monitored by a VTC91 temperature control unit and maintained by a gas flow. The temperature was determined by previous calibration with a Pt resistance temperature probe. High field relaxivities were measured on a Bruker AVANCE NMR spectrometer at 400 MHz. A total of 25 data points per NMRD profile were recorded at each temperature, pH 6.9 and with a manganese concentration in the samples of 6.99, 6.78 and 4.45 mM for the prior art Mn Chelate, Mn Chelate 4 and Mn Chelate 3, respectively. The concentration of Mn(II) in all samples was verified by Bulk Magnetic Susceptibility (BMS) measurements. Relaxivity was computed by subtracting the relaxation rate of the medium (distilled water) from the relaxation rate of the Mn(II) complex solution at each field strength and dividing the difference by the manganese concentration verified by BMS measurements.
The linear fit (R2>0.99 for all compounds examined) of 1/T1 and 1/T2 as a function of Mn concentration generated the r1 or r2 values reported in Table 4 for human serum.

[2] = In vivo 54Mn biodistribution study in rats; conditions: rat; for % ID retained activity, Brain / % ID retained activity, Bladder / % ID retained activity, Blood / % ID retained activity, Heart / % ID retained activity, Kidney / % ID retained activity, Liver / % ID retained activity, Lungs / % ID retained activity, Muscle / % ID retained activity, Olfactory Bulb / % ID retained activity, Skin / % ID retained activity, Spleen / % ID retained activity, Tibia/Fibula / % ID retained activity, Femur / % ID retained activity, Pituitary Gland: 7 days post single iv 0.62 mmol/kg, LoD 0.002% ID (Prior Art, Chelate 4), 0.005% ID (Chelate 3); for % ID retained activity, Brain: ~30 μCi 54Mn; for in vivo stability from biodistribution profile: 7 days post single iv administration
Experimental: ^54Mn labeled chelates for biodistribution studies were prepared using the following method. To a 3 mL glass vial fitted with a magnetic stir bar was added the respective manganese containing chelate (1 mg) and 1.0 M ammonium formate, pH=4 (0.5 mL) (pH=5 for prior art Mn Chelate). ^54MnCl2 in 1.0 M HCl (˜500 μCi) was then added and the resulting solution was heated at 40° C. for 16 h. The resulting solution was purified via preparative HPLC to remove unchelated Mn. The radioactive fraction was collected and evaporated to dryness in vacuo. The radioactive residue was taken up in water containing non-radioactive Mn chelate (0.310 M) such that ˜30 μCi of radioactivity was formulated in a dose of 0.620 mmol Mn/kg with an injection volume of 2 mL/kg.
The experimental protocol conformed to the Guide for the Care and Use of Laboratory Animals and was approved by the IACUC at General Electric Global Research (Niskayuna, NY). Female Sprague-Dawley rats (130-150 g; Charles River Laboratories; Massachusetts; USA) were housed in standard cages, provided with ad libitum access to standard commercial food and water, and were maintained on an alternating 12-hr light-dark cycle in rooms with controlled temperature and humidity. Prior to injection of ^54Mn labelled chelates, rats were anesthetized via inhaled 3% Isoflurane (Piramal, NDC 66794-013-25; EZ-Anesthesia EZ700 Isoflurane Vaporizer, S/N 107). The injection site was prepped with alcohol wipes and a temporary 27 Ga catheter (Surflo SROX2419V) was placed in a tail vein. 30 μCi (0.74 MBq) of ^54Mn labelled chelate formulated with respective non-radioactive Mn(II) based chelate was dosed at 0.620 mmol non-radioactive Mn chelate/kg at an injection volume of 2 m L/kg was injected at a rate of 1 mL/min. Following injection animals were individually housed in wire bottom cages lined with filter paper until first urine void was collected. The rats were then cohoused in standard long term caging. 7 days post injection, the animals were sacrificed by CO2 immersion and organs and tissues of interest were removed and assayed for radioactivity using a Wizard 2480 gamma counter (Perkin Elmer, Beaconsfield, UK).
Naïve rats (Charles River Laboratories; Massachusetts; USA) received a single dose of 0.620 mmol/kg (approximately 30 μCi, 0.740 MBq) of test item via tail vein by injection. Additionally, one group of animals received osmolality matched saline (concentrated NaCl for injection: APP Pharmaceuticals part #NDC 63323-187-30 Lot #6008656 mixed with Sterile Water for Injection: Hospira part #NDC 0409-7990-09 Lot #49-396-DKas) as negative control (Table 1). After sacrifice, the organs and tissues were removed and assayed for residual radioactivity (i.e. ^54Mn organ retention) 7 days post single administration.

[3] = Water solubility of Mn(II) based chelates; type: physicochemical; conditions: thermodynamic from solid, 25° C.
Experimental: The solubility of Mn(II) based chelates was confirmed by dissolving purified Mn(II) based chelates ( 99% purity) in a prescribed volume of solvent (Millipore water 18.2 MegaOhm from a Millipore BioCell Benchtop unit) to provide a solution of given volume. Solutions were visually inspected for homogeneity and filtered through a 0.45 um PTFE filter membrane if necessary. The assessment was carried out at 25° C. Final sample concentrations were confirmed by determination of final Mn(II) concentration via ICP-MS (Spectro Arcos FHS[…] 10003910 or S/N 12006120).

Compound | r1 (longitudinal relaxivity) [1] [mM⁻¹ s⁻¹] | % ID retained activity, Brain [2] | % ID retained activity, Bladder [2] | % ID retained activity, Blood [2] | % ID retained activity, Heart [2] | % ID retained activity, Kidney [2] [% ID] | % ID retained activity, Liver [2] [% ID] | % ID retained activity, Lungs [2] | % ID retained activity, Muscle [2] | % ID retained activity, Olfactory Bulb [2] | % ID retained activity, Skin [2] | % ID retained activity, Spleen [2] | % ID retained activity, Tibia/Fibula [2] | in vivo stability from biodistribution profile [2] | solubility [3] [mM] | % ID retained activity, Femur [2] | % ID retained activity, Pituitary Gland [2]
CN(C[C@H](O)[C@@H](O)[C@H](O)[C@H](O)CO)C(=O)CCCN1CCN2Cc3cccc(n3)CN(CC1)C(CCC(=O)N(C)C[C@H](O)[C@@H](O)[C@H](O)[C@H](O)CO)C(=O)[O][Mn][O]C(=O)C2CCC(=O)N(C)C[C@H](O)[C@@H](O)[C@H](O)[C@H](O)CO (some centres unmarked) [Mn Chelate 3] | 8.0 | within endogenous level variability and LOD | ≤LOD | ≤LOD | ≤LOD | 0.026 ± 0.005 | 0.091 ± 0.017 | ≤LOD | ≤LOD | ≤LOD | ≤LOD | ≤LOD | ≤LOD | improved stability compared to the prior art Mn Chelate | > 500 |  | 
CN1CCN2Cc3cccc(n3)CN(CC1)C(CCC(=O)N(C)C[C@H](O)[C@@H](O)[C@H](O)[C@H](O)CO)C(=O)[O][Mn][O]C(=O)C2CCC(=O)N(C)C[C@H](O)[C@@H](O)[C@H](O)[C@H](O)CO (some centres unmarked) [Mn Chelate 4] | 5.3 |  | ≤LOD | ≤LOD | ≤LOD | 0.038 ± 0.017 | 0.075 ± 0.011 | ≤LOD | ≤LOD | ≤LOD | ≤LOD | ≤LOD | ≤LOD | improved stability compared to the prior art Mn Chelate | > 500 | ≤LOD | ≤LOD
CN1CCN2CC(=O)[O][Mn][O]C(=O)CN(CC1)Cc1cccc(n1)C2 [Prior Art Mn Chelate, reference compound] | 3.0 | 0.007 ± 0.002% ID | ≤LOD | ≤LOD | ≤LOD | 0.012 ± 0.002 | 0.072 ± 0.017 | ≤LOD | ≤LOD | ≤LOD | ≤LOD | ≤LOD | 0.002 ± 0.000% ID |  | > 500 | 0.003 ± 0.001% ID | ≤LOD
